Laboratory results from patent publication EP4603105A1, “PHARMACEUTICAL COMPOSITION CONTAINING CYCLIC COMPOUND HAVING SELECTIVE KRAS INHIBITORY EFFECT AGAINST HRAS AND NRAS” (CHUGAI SEIYAKU KABUSHIKI KAISHA, priority 2022, dated 2024).
Like-named read-outs stand apart in the source and are kept apart here.

Key:
[1] = system: human lung cancer strain NCI-H441; assay: NCI-H441 cell proliferation inhibitory activity (CellTiter-Glo, 4 days); format: cell-based; settings: read-out: NCl-H441 IC50
In short: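 Proliferation was scored by […] measured after the reagent was added to cultures kept at 37°C in 5% carbon dioxide.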

HRAS wild-type protein = HRAS wild-type protein (Homo sapiens, UniProt P01112); assay: Binding to HRAS by surface plasmon resonance (SPR), KD and KD ratio to KRAS
Chain of HRAS wild-type protein (P01112 whole entry): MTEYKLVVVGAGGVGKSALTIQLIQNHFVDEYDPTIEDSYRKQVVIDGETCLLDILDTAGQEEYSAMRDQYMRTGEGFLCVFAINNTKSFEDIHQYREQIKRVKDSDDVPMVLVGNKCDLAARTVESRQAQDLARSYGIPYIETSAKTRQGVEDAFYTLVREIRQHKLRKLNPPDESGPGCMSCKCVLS
In short: (§1)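 Compound binding is evaluated by SPR single-cycle kinetics, with concentrations added intermittently from low to high for 75 s each. Target surfaces carry GDP-loaded biotinylated Avi-RAS at about 100–300 RU, regenerated after each cycle; temperature 30°C. A 1:1 binding model gives KD.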

[2] = target: GDP-bound KRAS wild-type protein (Homo sapiens, UniProt P01116); assay: Binding to KRAS by surface plasmon resonance (SPR), dissociation constant KD
Chain of GDP-bound KRAS wild-type protein (P01116 1-188 isoform P01116-2): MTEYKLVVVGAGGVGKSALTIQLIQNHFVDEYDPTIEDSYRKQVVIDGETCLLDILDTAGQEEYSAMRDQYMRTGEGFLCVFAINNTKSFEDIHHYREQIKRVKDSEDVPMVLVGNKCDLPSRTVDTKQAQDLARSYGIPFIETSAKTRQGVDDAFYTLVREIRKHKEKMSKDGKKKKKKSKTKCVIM
In short: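 Running buffer contained 10 µM GDP and 10 mM MgCl2 to keep RAS in the GDP state, with 4% DMSO at pH 7.4. Compounds were flowed at 100 µL/min in 75 s steps of rising concentration over captured biotin-Avi RAS at 30°C. Sensorgrams were fitted 1:1 for KD.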

[3] = target: GDP-bound NRAS wild-type protein (Homo sapiens, UniProt P01111); assay: Binding to NRAS by surface plasmon resonance (SPR), KD and KD ratio to KRAS
Chain of GDP-bound NRAS wild-type protein (P01111 whole entry): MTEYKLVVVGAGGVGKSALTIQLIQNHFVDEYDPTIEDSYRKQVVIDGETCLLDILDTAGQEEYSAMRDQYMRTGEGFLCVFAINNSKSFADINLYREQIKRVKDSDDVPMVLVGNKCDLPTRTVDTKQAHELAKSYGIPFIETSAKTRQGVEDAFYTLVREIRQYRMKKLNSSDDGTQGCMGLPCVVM
In short: as §1

[4] = ratio of KD for HRAS wild-type protein to KD for KRAS
[5] = ratio of KD for GDP-bound NRAS wild-type protein to KD for KRAS
[6] = 50% proliferation inhibitory concentration, four days
[7] = ratio of KD with respect to HRAS wild-type protein to KD with respect to KRAS
[8] = Single Cycle Kinetics, 1:1 binding model
[9] = ratio of KD with respect to GDP-bound NRAS wild-type protein to KD with respect to KRAS

Structure (SMILES)	IC50 ([1]; NCI-H441 cells, 4 days) [nM]	HRAS /KRAS (HRAS wild-type protein; [4])	Kd ([2]; 1:1 binding model) [nM]	NRAS /KRAS [3, 5]	Kd ([2]; Single Cycle Kinetics) [nM]	IC50 [1, 6] [nM]	HRAS /KRAS (HRAS wild-type protein; [7])	Kd [2, 8] [nM]	NRAS /KRAS [3, 9]
CCC[C@H]1C(=O)N[C@@H]([C@@H](C)CC)C(=O)N(C2CC2)CC(=O)N(C)[C@H]2C/C=C\CCN(C2=O)[C@@H](Cc2ccc(C)cc2)C(=O)N(C)CC(=O)N[C@@H](CCc2cc(F)c(C(F)(F)F)c(F)c2)C(=O)N2C[C@H](OC(C)C)C[C@H]2C(=O)NC2(CC(C)(C)C2)C(=O)N(C)[C@@H](C2CCCC2)C(=O)N(C)[C@H](C(=O)N(C)C)CC(=O)N1C [PP2570]	8.9	A (a compound having 10 or more and less than 20 is denoted as A)	0.39	A (a compound having 10 or more and less than 20 is denoted as A)	–	–	–	–	–
C#CCN1CC(=O)N(C)[C@H]2C/C=C\CCN(C2=O)[C@@H](Cc2ccc(C(F)F)cc2)C(=O)N(C)CC(=O)N[C@@H](CCc2cc(F)c(C(F)(F)F)c(F)c2)C(=O)N2C[C@H](OCC)C[C@H]2C(=O)N(C)C2(CCC2)C(=O)N(C)[C@@H](C(CC)CC)C(=O)N(C)[C@H](C(=O)N(C)C)CC(=O)N(C)[C@@H](COCCC)C(=O)N[C@@H]([C@@H](C)OC)C1=O [PP3506]	12.5	A (a compound having 10 or more and less than 20 is denoted as A)	–	A (a compound having 10 or more and less than 20 is denoted as A)	0.73	–	–	–	–
CCO[C@@H]1C[C@H]2C(=O)NC3(CC(C)(C)C3)C(=O)N(C)[C@@H](C3CCCC3)C(=O)N(C)[C@H](C(=O)N3CCCCC3)CC(=O)N(C)[C@@H](COC)C(=O)N[C@@H]([C@@H](C)CC)C(=O)N(C)CC(=O)N(C)[C@H]3C/C=C\CCN(C3=O)[C@@H](Cc3ccc(C(F)(F)F)cc3)C(=O)N(C)CC(=O)N[C@@H](CCc3ccc(Cl)c(Cl)c3)C(=O)N2C1 [PP2670]	25.2	A (a compound having 10 or more and less than 20 is denoted as A)	0.48	AA (a compound having 20 or more is denoted as AA)	–	–	–	–	–
CCOC[C@H]1C(=O)N[C@@H]([C@@H](C)CC)C(=O)N(C)CC(=O)N(C)[C@H]2C/C=C\CCN(C2=O)[C@@H](Cc2ccc(C)cc2)C(=O)N(C)CC(=O)N[C@@H](CCc2cc(F)c(C(F)(F)F)c(F)c2)C(=O)N2C[C@H](OCC)C[C@H]2C(=O)NC2(CC(C)(C)C2)C(=O)N(C)[C@@H](C2CCCC2)C(=O)N(C)[C@H](C(=O)N(C)CC)CC(=O)N1C [PP2404]	4.1	A (a compound having 10 or more and less than 20 is denoted as A)	0.09	A (a compound having 10 or more and less than 20 is denoted as A)	–	–	–	–	–
CCO[C@@H]1C[C@H]2C(=O)OC3(CCC3)C(=O)N(C)[C@@H](C3CCCC3)C(=O)N(C)[C@H](C(=O)N(C)C)CC(=O)N(C)[C@@H]([C@H](C)OC)C(=O)N[C@@H]([C@@H](C)CC)C(=O)N3CCC[C@H]3C(=O)N(C)[C@H]3C/C=C\CCN(C3=O)[C@@H](Cc3ccc(C(F)(F)F)cc3)C(=O)N(C)CC(=O)N[C@@H](CCc3ccc(C(F)(F)F)c(OC)c3)C(=O)N2C1 [PP3377]	11.3	A (a compound having 10 or more and less than 20 is denoted as A)	–	A (a compound having 10 or more and less than 20 is denoted as A)	0.53	–	–	–	–
CCC[C@H]1C(=O)N[C@@H]([C@@H](C)CC)C(=O)N(C)CC(=O)N(C)[C@H]2C/C=C\CCN(C2=O)[C@@H](Cc2ccc(C(F)(F)F)cc2)C(=O)N(C)CC(=O)N[C@@H](CCc2cc(F)c(C(F)(F)F)c(F)c2)C(=O)N2CC3(CC3)C[C@H]2C(=O)N(C)C2(CCC2)C(=O)N(C)[C@@H]([C@@H](C)CC)C(=O)N(C)[C@H](C(=O)N(C)C)CC(=O)N1C [PP3358]	3.1	A (a compound having 10 or more and less than 20 is denoted as A)	–	A (a compound having 10 or more and less than 20 is denoted as A)	0.11	–	–	–	–
CCO[C@@H]1C[C@H]2C(=O)NC3(CCCC3)C(=O)N(C)[C@@H](C3CCCC3)C(=O)N(C)[C@H](C(=O)N(C)C)CC(=O)N(C)[C@@H](CC3CC3)C(=O)N[C@@H]([C@@H](C)CC)C(=O)N(C)CC(=O)N(C)[C@H]3C[C@@H](C)[C@@H](C)CN(C3=O)[C@@H](Cc3ccc(C(F)(F)F)cc3)C(=O)N(C)CC(=O)N[C@@H](CCc3cc(F)c(C(F)(F)F)c(F)c3)C(=O)N2C1 [PP1356]	–	–	–	–	–	3.3	B (a compound having 3 or more and less than 10 is denoted as B)	0.047	B (a compound having 3 or more and less than 10 is denoted as B)
CCCCCC[C@H]1C(=O)N[C@@H]([C@@H](C)CC)C(=O)N(C)CC(=O)N(C)[C@H]2C/C=C\CCN(C2=O)[C@@H](Cc2ccc(C(F)(F)F)cc2)C(=O)N(C)CC(=O)N[C@@H](CCc2cc(F)c(C(F)(F)F)c(F)c2)C(=O)N2C[C@H](OCC)C[C@H]2C(=O)NC2(CCC2)C(=O)N(C)[C@@H](C2CCCC2)C(=O)N(C)[C@H](C(=O)N(C)C)CC(=O)N1C [PP1242]	–	–	–	–	–	12.8	A (a compound having 10 or more and less than 20 is denoted as A)	0.076	A (a compound having 10 or more and less than 20 is denoted as A)
